Experimental data: paper PMC10246557, “Kinetic and inhibition studies on human Jumonji-C (JmjC) domain-containing protein 5” (RSC Chemical Biology, 2023)
Several values for one entry are separate records, joined by “and”; a condition that tells them apart may be missing. Equal entries are not always repeated. Where two headings read alike, the source gives them in different places.

How the values were obtained:
human KDM4E [1] = target: T1, human KDM4E (Homo sapiens, UniProt B2RXH2); assay: KDM4E SPE-MS turnover and kinetic assay (H3 K9(me3) peptide demethylation); format: biochemical; settings: absence of 2OG, KDM4E 0.15 μM, 2OG derivative 330 μM, Fe(II) 50 μM, ARTAQTARK(me3)STGGIA 10.0 μM
T1 sequence (B2RXH2 1-506): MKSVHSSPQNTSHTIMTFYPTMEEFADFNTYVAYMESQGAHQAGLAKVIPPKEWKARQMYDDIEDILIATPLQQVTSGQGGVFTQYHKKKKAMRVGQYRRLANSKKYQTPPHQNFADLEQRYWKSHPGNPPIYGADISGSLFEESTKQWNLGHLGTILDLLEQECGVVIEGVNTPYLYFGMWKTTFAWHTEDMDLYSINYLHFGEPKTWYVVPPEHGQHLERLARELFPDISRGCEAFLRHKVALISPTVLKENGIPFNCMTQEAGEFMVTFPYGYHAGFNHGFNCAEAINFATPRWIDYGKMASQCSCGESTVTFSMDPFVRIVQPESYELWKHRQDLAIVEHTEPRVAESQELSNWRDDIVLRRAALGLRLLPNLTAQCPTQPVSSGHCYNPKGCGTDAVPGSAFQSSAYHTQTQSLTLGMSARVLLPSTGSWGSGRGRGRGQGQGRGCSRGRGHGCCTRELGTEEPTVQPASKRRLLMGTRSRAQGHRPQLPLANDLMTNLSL
Method: KDM4E turnover and inhibition assays were performed as reported using recombinant human KDM4E and a histone 3 K9(me3) derivative (i.e. […](me3)STGGIA)[41] as substrate.[95]
Supplementary Figure S3. Rates of KDM4E-catalyzed Nε-trimethyl lysine demethylations of a histone 3- […]
Maximum velocities (vapp ) and Michaelis […]
catalyzed Nε-trimethyl lysine demethylation of the histone 3 K9(me3)-derived peptide […]
(me3)STGGIA2 by SPE-MS as described;3 note that mono-, di-, and tri-demethylated product […]
buffer (50 mM MES, pH 7.0, 20 °C). Measurement times were normalized to the first sample injection analyzed […]
(§1) Data are shown as the mean of three independent runs (n = 3; mean ± SD).
(a) Time course of the KDM4E-catalyzed Nε-trimethyl lysine demethylation reaction of the […]

human KDM4E [2] = target: T1, human KDM4E; assay: KDM4E SPE-MS inhibition assay; format: biochemical; settings: KDM4E 0.15 μM, peptide 10.0 μM, LAA 100 μM, FAS 10 μM, 2OG 10 μM
Method: KDM4E turnover and inhibition assays were performed as reported using recombinant human KDM4E and a histone 3 K9(me3) derivative (i.e. […](me3)STGGIA)[41] as substrate.[95] […]

human FIH [3] = settings: absence of 2OG, FIH 0.15 μM, 2OG derivative 330 μM, Fe(II) 50 μM, HIF-1α788–822 5.0 μM, cited from earlier work
human FIH [4] = tested on: human FIH; set-up: method as in ref 10 (ESI); settings: FIH 0.15 μM, HIF-1α788-822 5.0 μM, 2OG 10 μM; ref 10 (ESI); cited from earlier work
human AspH [5] = settings: absence of 2OG, AspH 0.1 μM, 2OG derivative 330 μM, Fe(II) 50 μM, hFX-CP101–119 2.0 μM, cited from earlier work
human AspH [6] = tested on: human AspH; set-up: method as in ref 9 (ESI); settings: AspH 0.05 μM, hFX-CP101-119 1.0 μM, 2OG 3.0 μM; ref 9 (ESI); cited from earlier work
human JMJD5 [7] = target: T2, human JMJD5 (Homo sapiens, UniProt Q8N371); assay: SPE-MS JMJD5 turnover and kinetic assay (RPS6_128–148 hydroxylation); format: biochemical; settings: for JMJD5 (%): RPS6_128–148 hydroxylation with the compound as cosubstrate: absence of 2OG, JMJD5 0.15 μM, 2OG derivative 400 μM, Fe(II) 20 μM, RPS6_128–148 2.0 μM
T2 construct: made in house; host or cells: Escherichia coli BL21(DE3)
T2 sequence (Q8N371 whole entry): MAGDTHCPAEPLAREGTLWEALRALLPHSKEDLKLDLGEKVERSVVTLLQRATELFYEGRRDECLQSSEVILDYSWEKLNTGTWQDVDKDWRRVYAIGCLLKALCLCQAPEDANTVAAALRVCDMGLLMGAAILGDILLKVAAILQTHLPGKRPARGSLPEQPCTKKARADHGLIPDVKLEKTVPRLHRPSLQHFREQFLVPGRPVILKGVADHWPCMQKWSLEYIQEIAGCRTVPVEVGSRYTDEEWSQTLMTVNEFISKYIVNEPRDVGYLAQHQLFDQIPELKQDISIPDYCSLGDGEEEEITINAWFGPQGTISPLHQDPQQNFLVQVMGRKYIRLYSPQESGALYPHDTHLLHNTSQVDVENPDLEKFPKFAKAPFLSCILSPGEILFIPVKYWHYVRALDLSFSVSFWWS
Method: JMJD5 turnover assays for time course and kinetic experiments were performed in 96-well polypropylene assay plates (Greiner) with either […] total reaction volume using the concentrations given in the manuscript or ESI, ^† and JMJD5-catalysed substrate hydroxylation was directly monitored using SPE-MS. […] Assay samples were aspirated under vacuum for 0.6 s and loaded onto a C4 solid phase extraction (SPE) cartridge. After loading, the C4 SPE cartridge was washed with 0.1%v/v aqueous formic acid to remove non-volatile buffer salts (5.5 s, 1.5 mL min^−1). The peptide was eluted from the SPE cartridge with 0.1%v/v aqueous formic acid in 80/20v/v acetonitrile/water into the mass spectrometer (5.5 s, 1.5 mL min^−1) and the SPE cartridge re-equilibrated with 0.1%v/v aqueous formic acid (0.5 s, 1.5 mL min^−1). The mass spectrometer was operated using the MassHunter Workstation B.08.00 software (Agilent), the mass spectrometer parameters were: capillary voltage (4000 V), nozzle voltage (1000 V), fragmentor voltage (365 V), gas temperature (280 °C), gas flow (13 L min^−1), sheath gas temperature (350 °C), sheath gas flow (12 L min^−1). […] Data were exported into Microsoft Excel and used to calculate the % conversion of the hydroxylation reaction using the equation: % conversion = 100 × (integral product peptide)/(integral substrate peptide + integral product peptide).
parameters (continues on the following two pages). Maximum velocities (vapp ) and Michaelis constants (Kapp)
of JMJD5 were determined in independent triplicates, monitoring the JMJD5-catalyzed hydroxylation of the
SPE-MS, as described (Experimental Section).
20 °C). Measurement times were normalized to the first sample injection analyzed after the addition of JMJD5 to
shown as the mean of three independent runs (n = 3; mean ± standard deviation, SD).
hexahydrate (20 μM, (NH4)2Fe(SO4)2·6H2O); and (b) hydroxylation rates used to determine kinetic parameters of
(1 picture or pasted object on this page, not shown here)
Maximum velocities (vapp ) and
Michaelis constants (Kapp) of JMJD5 were determined in independent triplicates for (1R)-3-
(carboxycarbonyl)cyclopentane-1-carboxylic acid (14), monitoring the JMJD5-catalyzed hydroxylation of the
as described (Experimental Section).
pH 7.5, 20 °C). Measurement times were normalized to the first sample injection analyzed after the addition of
as §1
to determine kinetic parameters of JMJD5 for 14.

human JMJD5 [8] = target: T2, human JMJD5; assay: SPE-MS JMJD5 inhibition assay; format: biochemical; settings: JMJD5 0.15 μM, 2OG 2.0 μM, Fe(II) 2.0 μM, LAA 100 μM, RPS6_128–148 2.0 μM; read-out: IC50 JMJD5
Method: Solutions of the small-molecules (100% DMSO) were dry dispensed across 384 well polypropylene V-bottom assay microplates (Greiner) in an approximately three-fold and 11-point dilution series (100 μM inhibitor top concentration; the final DMSO assay concentration was kept constant at 0.5%v/v) using an ECHO 550 acoustic dispenser (Labcyte). […] Each reaction was performed in technical duplicates in adjacent wells of the assay plates; additionally, assays were performed in two independent duplicates on different days using different inhibitor solutions.
The Enzyme Mixture (25 μL per well), containing 0.3 μM His6-thioredoxin-tagged JMJD5 in buffer (50 mM MOPS, pH 7.5), was dispensed across the inhibitor-containing 384-well plates with a multidrop dispenser (ThermoFischer Scientific) at 20 °C under an ambient atmosphere. The plates were subsequently centrifuged (1000 rpm, 5 s) and incubated for 15 min at 20 °C. […] The plates were centrifuged (1000 rpm, 5 s) and, after incubating for 30 min, the enzyme reaction was stopped by the addition of 10%v/v aqueous formic acid (5 μL per well). The plates were then centrifuged (1000 rpm, 30 s) and analyzed by MS.
Z′-Factors were calculated according to the cited literature using Microsoft Excel.[61]

Compound | KDM4E (%): substrate demethylation with the compound as cosubstrate (human KDM4E [1]; listed as Entry 13) [%] | IC50 (human KDM4E [2]) | FIH (%): substrate hydroxylation with the compound as cosubstrate (human FIH [3]; listed as Entry 13) [%] | IC50 (human FIH [4]) [µM] | AspH (%): substrate hydroxylation with the compound as cosubstrate (human AspH [5]; listed as Entry 13) [%] | IC50 (human AspH [6]) [µM] | JMJD5 (%): RPS6_128–148 hydroxylation with the compound as cosubstrate (human JMJD5 [7]) | IC50 (human JMJD5 [8]) [µM] | KDM4E (%): substrate demethylation with the compound as cosubstrate (human KDM4E [1]) | FIH (%): substrate hydroxylation with the compound as cosubstrate (human FIH [3]) | AspH (%): substrate hydroxylation with the compound as cosubstrate (human AspH [5]) | KDM4E (%): substrate demethylation with the compound as cosubstrate (human KDM4E [1]; listed as Entry 22) [%] | FIH (%): substrate hydroxylation with the compound as cosubstrate (human FIH [3]; listed as Entry 22) | AspH (%): substrate hydroxylation with the compound as cosubstrate (human AspH [5]; listed as Entry 22) | JMJD5-catalyzed RPS6_128–148 hydroxylation, time course (human JMJD5 [7]; after 50 min, 10 μM cosubstrate, 0.15 μM JMJD5, 10 μM Fe(II), 2.0 μM RPS6_128–148) [%]
CC(C)(CC(=O)C(=O)O)C(=O)O [2OG derivative 9, 4,4-dimethyl-2OG] | < 1 | > 30 µM | < 5 | > 50 | < 1 | ~0.3 | – | – | – | – | – | – | – | – | –
4-methyl-2OG [2OG derivative 8] | – | – | – | > 50 | – | > 50 | ~ 10% | > 50 | < 1% | ~ 45% | ~ 10% | – | – | – | –
O=C(O)C(=O)c1ccc(C(=O)O)s1 [2OG derivative 34] | – | > 50 µM | – | > 50 | – | – | < 1% | > 30 | < 1% | < 1% | ~ 15% | – | – | – | –
4-propyl-2OG [2OG derivative 11] | – | > 50 µM | – | – | – | – | ~ 10% | > 50 | < 1% | ~ 5% | < 1% | – | – | – | –
O=C(O)C(=O)C1C2C=CC(C2)C1C(=O)O (racemic) [2OG derivative 26] | – | > 50 µM | – | > 50 | – | – | < 1% | > 50 | < 1% | < 1% | < 1% | – | – | – | –
O=C(O)C(=O)C1CC[C@@H](C(=O)O)C1 (mixture of isomers) [2OG derivative 14, (1R)-3-(carboxycarbonyl)cyclopentane-1-carboxylic acid] | – | 27.9 ± 3.5 µM | – | > 50 | – | – | – | – | – | – | – | < 1 | ~ 2% | ~ 15% | –
4-(2-naphthyl)methyl-2OG [2OG derivative 23] | – | 6 to 7 µM and ~6.9 µM | – | 2.5 ± 0.1 | – | – | < 1% | > 50 | < 1% | < 1% | < 1% | – | – | – | –
3-(4-methoxybenzyl)-2OG [2OG derivative 6] | – | > 50 µM | – | – | – | – | ~ 10% | > 50 | ~ 5% | < 1% | < 1% | – | – | – | –
3-ethyl-2OG [2OG derivative 2] | – | > 50 µM | – | – | – | – | < 1% | > 20 | < 1% | ~ 2% | < 1% | – | – | – | –
CC(CC(=O)C(=O)O)C(=O)O (stereo not drawn) [Entry 8] | – | 6 to 7 µM and ~6.6 µM | – | – | – | – | < 1% | – | < 1% | < 1% | < 1% | – | – | – | ~30
